The values below come from paper PMC10828988, “Tuning the Softness of the Pendant Arms and the Polyazamacrocyclic Backbone to Chelate the ^203Pb/^212Pb Theranostic Pair” (Inorganic Chemistry, 2024).

The nature of data set [1]: Formation kinetics of Pb2+ complexes (UV-Vis / 1H NMR). The settings on record: pH = 5, equimolar ligand and metal concentrations (10^–4 M), room temperature. It is filed as physicochemical. The protocol: The formation kinetics of the Pb^2+ complexes was evaluated at room temperature by UV–Vis or ^1H NMR spectroscopy. A typical experiment was performed by mixing equimolar amounts of metal and ligand solutions (final concentrations: 1.0 × 10^–4 M for UV–Vis, 1.0 × 10^–3 M for ^1H NMR) in buffered media at pH = 2 (HCl 10^–2 M), pH = 3.7 (formic/formiate buffer), pH = 5 (acetic/acetate buffer), and pH = 7.4 (2-[4-(2-hydroxyethyl)piperazin-1-yl]ethanesulfonic acid, i.e., HEPES, buffer). To avoid the formation of PbCO3 (Ks = 7.4 × 10^–14), water was boiled before each measurement.
The electronic spectra were collected in the 200–800 nm range at different time points using a Cary 60 UV–Visible spectrophotometer (Agilent) equipped with a 1 cm path length quartz cell. The complexation reactions were monitored by the increase in the absorption peaks diagnostic of the Pb^2+-ligand complex formation at the characteristic wavelength (Table S2) over time. ^1H NMR spectra were recorded on a 400 MHz Bruker Avance III HD spectrometer. All data were collected […] with Topspin 3.5 using standard Bruker processing parameters with Topspin 4.1.1 software. […] Water suppression was carried out with the excitation sculpting pulse scheme.[38]

Data set [2] is described as follows: Concentration-dependent radiolabeling with [203Pb]Pb2+ (iTLC). Conditions: for radiochemical incorporation (RCI) of [^203Pb]Pb^2+: 1 h. The protocol: Water replaced the ligands in the negative control. All of the radiolabeling for the cyclen-based derivatives was performed at room temperature and monitored at 5 min and 1 h time points whereas heating at T = 80 °C was also employed for TACD3S, TRI4S, and TE4S. All radiolabeling reactions were repeated at least in triplicate.
Radiochemical incorporation (RCI) was determined via instant thin-layer chromatography (iTLC) with silicic acid (SA)-impregnated paper TLC plates (iTLC-SA, Agilent Technologies, USA). Ethylenediamine tetraacetic acid (EDTA, 50 mM, pH = 5.5) was used as the eluent. […] The iTLC plates were analyzed on an Eckert & Ziegler AR-2000 TLC scanner, and all the data were processed with Eckert & Ziegler WinScan software.

Data set [3] is described as follows: Out-of-cell UV-Vis spectrophotometric titrations (stability constants, pPb). It is filed as physicochemical. The protocol:
The ionic strength (I) was fixed to 0.15 M using sodium nitrate (NaNO3) as background electrolytes. All of the experiments described below were repeated at least in triplicate.
UV–Vis spectrophotometric titrations were carried out by the out-of-cell method in the pH range of 0–12 at T = 25 °C. […] A Mettler Toledo pH meter with a glass electrode was used to measure the pH. […] In highly acidic solutions (pH ≪ 2), the pH was computed from the acid concentration (pH = −logCH^+). After the pH adjustment, the vials were sealed, heated to T = 60 °C to ensure complete Pb^2+ complexation, and cooled to room temperature. The absorption spectra were recorded using the same apparatus described for the kinetic measurements (vide supra). The equilibrium was reached when no variations of the electronica spectra or the pH were detected.
All equilibrium data were processed using the least-squares fitting program PITMAP as described in our previous works.[2],[4],[28] The overall equilibrium constants refer to the general equilibria pM^m+ + qH^+ + rL^l– ⇆ MpHqLr^pm+q–rl, where M^m+ represent the metal ion and L^l– represents the deprotonated ligand, and are designated as logβ (βpqr = [MpLqHr]/[M]^p[L]^q[H]^r). The refinements of log β included the previously determined ligand protonation constants and the Pb^2+ hydrolysis products whose equilibrium constants were fixed to the literature values.[27],[39] […] The errors quoted are the standard deviations of the overall stability constants calculated by the PITMAP program.

The nature of data set [4]: Direct in-cell pH-potentiometric titrations. The data set is classed as physicochemical. Conditions: pH-potentiometry, I = 0.15 M NaNO3, T = 25 °C. Here is the method:
Nitric acid (HNO3) solutions were prepared at ∼10^–1 M by dilution of the concentrated acid (Aristar - VWR Chemicals, 69%) and standardized against sodium carbonate (Aldrich, 99.95–100.5%). Carbonate-free sodium hydroxide (NaOH) solutions were prepared at ∼10^–1 M from commercial pellets (Fluka, 99% min) using freshly boiled ultrapure water and standardized using the previously standardized acid. […] Pb^2+ solutions were preprepared from analytical-grade nitrate salt (Pb(NO3)2, Sigma-Aldrich, 99%) and standardized using complexometric titrations with ethylenediaminetetraacetic acid (EDTA) with xylenole orange as an indicator. The ionic strength (I) was fixed to 0.15 M using sodium nitrate (NaNO3) as background electrolytes. All of the experiments described below were repeated at least in triplicate.
Direct (in-cell) pH-potentiometric titrations were carried out with an automated Metrohm 765 Dosimat titrating system using a Metrohm 713 pH meter. […]
All equilibrium data were processed using the least-squares fitting program PITMAP as described in our previous works.[2],[4],[28] […] The refinements of log β included the previously determined ligand protonation constants and the Pb^2+ hydrolysis products whose equilibrium constants were fixed to the literature values.[27],[39] […] The errors quoted are the standard deviations of the overall stability constants calculated by the PITMAP program.

On the set-up of data set [5]: method as in doi:10.1016/0010-8545(91)80023-7. The settings on record: T = 25 °C, nonfunctionalized macrocycles; cited from earlier work.
Setting [6] is: calculated at CPb^2+ = 10^–6 M, Cligand = 10^–5 M, pH = 7.4.

Marks after values point to notes of the source that are not given here.

Regarding `CSCCN1CCN(CC(=O)O)CCN(CCSC)CCN(CC(=O)O)CC1` [DO2A2S, 1,7-bis[2-(methylsulfanyl)ethyl]-1,4,7,10-tetraazacyclododecane-4,10-diacetic acid], in data set [1], the “time to reach equilibrium of Pb^2+ complexation” value is reported as “practically instantaneous”. Further, in data set [2] (5 min vs 1 h, pH = 7, room temperature), the “effect of a change in reaction time on RCI” value is on record as “no effect”. Besides, the “radiochemical incorporation (RCI) of [^203Pb]Pb^2+” value in data set [2] (ligand 10^–4 M, pH = 7, room temperature) is given as greater than 90%; in data set [2] (ligand 10^–5 M, pH = 7, room temperature), greater than 90%; in data set [2] (ligand 10^–6 M, pH = 7, room temperature), 68 ± 1%; in data set [2] (ligand 10^–7 M, pH = 7, room temperature), 56 ± 4%. Moreover, in data set [2] (room temperature, 5 min reaction time, chelator concentration as low as 10^–5 M), the “radiochemical incorporation of [^203Pb]Pb^2+” value was “quantitative radiochemical incorporation”. The “log β, Pb^2+ + L ⇋ [PbL]” value in data set [3] (UV–Vis spectrophotometric titrations, I = 0.15 M NaNO3, T = 25 °C) was determined as 18.3 ± 0.1. Also, the “pPb = −log[Pb^2+]free” value in data set [3] (setting [6]) is given as 15.7. Moreover, in data set [3] (setting [6]), the “pPb* (−log of free Pb^2+ plus hydrolysis products)” value is 15.4. In data set [4], the “log β, Pb^2+ + H^+ + L^2– ⇋ [PbHL]^+” value was 20.89 ± 0.07 ^c. For the same molecule, in data set [4], the “log β, Pb^2+ + L^2– ⇋ [PbL]” value was 18.2 ± 0.1.
For `C1CNCCNCCNCCN1` [cyclen, 1,4,7,10-tetrazacyclododecane], the “logK Pb^2+-macrocycle” value in data set [5] is listed as 15.9.
